Data from the supplement of paper PMC10307832.

Experiments:
Assay in all cases: relative viability (nuclei count vs DMSO), 5 days (fraction); higher = more cells survive
[1] = compound: Cc1ccccc1C(C(=O)NC1CCCCC1)N(C(=O)Cn1ccnc1C)c1cccc(F)c1 [IDH-C35] + O=C(c1cc(Cc2n[nH]c(=O)c3ccccc23)ccc1F)N1CCN(C(=O)C2CC2)CC1 [Olaparib] (partner 8 µM)
Summary of the method: (§1)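 One day after seeding in 1536-well plates, lung cancer cell lines were dosed by pin tool. Dosing was either single-drug or a fixed anchor-drug dose plus five library-drug doses (not always all listed) in √10 steps. After 5 days, nuclei were stained in one fix-and-stain step and counted on 4× images, and relative viability is the nuclei count of treated wells over that of vehicle wells, given as the median of duplicate plates.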

[2] = compound: Cc1ccccc1C(C(=O)NC1CCCCC1)N(C(=O)Cn1ccnc1C)c1cccc(F)c1 [IDH-C35] + C[C@@H](Oc1cc(-c2cnn(C3CCNCC3)c2)cnc1N)c1c(Cl)ccc(F)c1Cl [Crizotinib] (partner 1 µM)
Summary of the method: as §1

[3] = compound: CC1=C(C(=NN1)C)CC2=C(C3=C(S2)N(C(=O)N(C3=O)C)CC(C)C)C(=O)N4C[C@@H](CO4)O + C[C@]1(O)C[C@@H](c2nc(-c3ccc4ccc(-c5ccccc5)nc4c3)c3c(N)nccn32)C1 [Linsitinib] (partner 1 µM)
Summary of the method: as §1

[4] = compound: Cc1ccccc1C(C(=O)NC1CCCCC1)N(C(=O)Cn1ccnc1C)c1cccc(F)c1 [IDH-C35] + Nc1nc2[nH]cc(CCc3ccc(C(=O)N[C@@H](CCC(=O)O)C(=O)O)cc3)c2c(=O)[nH]1 [Pemetrexed] (partner 0.2 µM)
Summary of the method: as §1

Row | Cell Line | relative viability ([1]; first compound 0.08 µM) | relative viability ([1]; first compound 0.253 µM) | relative viability ([1]; first compound 0.8 µM) | relative viability ([1]; first compound 8 µM) | relative viability ([2]; first compound 0.08 µM) | relative viability ([2]; first compound 0.253 µM) | relative viability ([2]; first compound 0.8 µM) | relative viability ([2]; first compound 8 µM) | relative viability ([3]; first compound 0.0025 µM) | relative viability ([3]; first compound 0.007906 µM) | relative viability ([3]; first compound 0.025 µM) | relative viability ([3]; first compound 0.07906 µM) | relative viability ([3]; first compound 0.25 µM) | relative viability ([4]; first compound 0.08 µM) | relative viability ([4]; first compound 0.253 µM) | relative viability ([4]; first compound 0.8 µM) | relative viability ([4]; first compound 8 µM) | relative viability ([1]; first compound 2.53 µM) | relative viability ([2]; first compound 2.53 µM) | relative viability ([4]; first compound 2.53 µM)
1 | LCLC-97TM1 | 0.322 | 0.291 | 0.341 | 0.47 | 0.366 | 0.281 | 0.291 | 0.293 | 0.183 | 0.206 | 0.205 | 0.163 | 0.159 | 0.216 | 0.173 | 0.201 | 0.145 | – | – | –
2 | NCI-H596 | 0.591 | 0.653 | 0.773 | 0.785 | 0.831 | 0.966 | 1.08 | 0.973 | 1.02 | 1.14 | 1.08 | 1.13 | 1.13 | 0.473 | 0.475 | 0.529 | 0.455 | 0.751 | 1.02 | 0.549
3 | H3255 | 0.554 | 0.576 | 0.579 | 0.553 | 0.898 | 0.9 | 0.897 | 0.848 | 1.06 | 0.881 | 0.909 | 1.01 | 1.11 | 0.595 | 0.589 | 0.573 | 0.499 | 0.63 | 0.773 | 0.632
4 | SK-MES-1 | 0.737 | 0.728 | 0.609 | 0.631 | 1.05 | 0.953 | 0.912 | 0.986 | 1.05 | 1.03 | 1.04 | 1.15 | 1.14 | 0.91 | 0.988 | 0.925 | 0.874 | 0.693 | 0.937 | 0.861
5 | NCI-H1437 | 0.61 | 0.649 | 0.609 | 0.602 | 0.979 | 0.913 | 0.907 | 0.796 | 1.03 | 1.21 | 1.01 | 1.1 | 1.08 | 0.35 | 0.291 | 0.362 | 0.296 | 0.619 | 0.874 | 0.299
6 | LU99A | 0.254 | 0.247 | 0.291 | 0.248 | 0.585 | 0.612 | 0.587 | 0.539 | 0.592 | 0.542 | 0.522 | 0.583 | 0.567 | 0.191 | 0.216 | 0.173 | 0.191 | 0.259 | 0.578 | 0.187
7 | HCC-827 | 0.545 | 0.608 | 0.614 | 0.658 | 0.911 | 0.956 | 0.911 | 0.957 | 1.01 | 1.01 | 0.96 | 0.949 | 0.963 | 0.279 | 0.266 | 0.269 | 0.238 | 0.708 | 0.876 | 0.248
8 | LK-2 | 0.842 | 0.772 | 0.575 | 0.73 | 0.223 | 0.23 | 0.215 | 0.233 | 0.695 | 0.674 | 0.495 | 0.566 | 0.815 | 0.259 | 0.322 | 0.255 | 0.202 | 0.701 | 0.209 | 0.22
